The text below walks through data of patent US20260297085A1, “1 H-PYRROLO[2,3-B]PYRIDIN-4-YL]-2-OXOPYRROLIDINE-3-CARBONITRILE DERIVATIVES AS TYROSINE KINASE 2 (TYK2) INHIBITORS FOR THE TREATMENT OF INFLAMMATORY DISEASES” (BIOGEN MA INC., priority 2023, published 2026).

The target in experiment [1] is Tyk2 kinase activity on STAT4 in NK92 cells (Homo sapiens, UniProt P29597). Kind of experiment: pSTAT4 cell assay (MSD; NK92 cells, 30 ng/mL IL2 stimulation). The class given is cell-based. Particulars: 30 ng/mL IL2, 15 minutes. An outline of the steps:
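Serum-starved NK92 cells were preincubated 1 hr with compound (10-point, four-fold dilutions from 10 μM), then stimulated with 30 ng/mL IL2 for 15 minutes. Lysates were read on an MSD plate assay using anti-STAT4 antibodies, and IC50 came from a 4-parameter logistic fit of normalized percent activity.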

The target of experiment [2] is T1, human JAK3 kinase domain (JH1) (Homo sapiens, UniProt P52333).
T1 construct: recombinantly generated catalytic kinase (also known as JH1) domain of human JAK1, JAK2, JAK3 and TYK2
Description: JH1 biochemical assay for JAK3 (ADP-Glo kinase assay, recombinant JH1 catalytic domain, JAK3-974 peptide, 4 μM ATP). To be noted: JH1 kinase domain, ADP-Glo. The procedure, abridged:
(§1)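 Reactions ran 100 min with 50 μM substrate peptide (JAK3-342 for JAK1 at 4 nM enzyme; JAK3-974 for JAK2 0.2 nM, JAK3 0.3 nM, TYK2 2 nM), and ADP formed was read by ADP-Glo luminescence. Eleven-point 3-fold series from 10 or 1 μM; IC50 fitted by 4-parameter logistic model.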
A general note: ADP-Glo first removes unused ATP, then detects ADP through luciferase.

The target in experiment [3] is T2, human JAK2 kinase domain (JH1) (Homo sapiens, UniProt O60674).
T2 construct: recombinantly generated catalytic kinase (also known as JH1) domain of human JAK1, JAK2, JAK3 and TYK2
Description: JH1 biochemical assay for JAK2 (ADP-Glo kinase assay, recombinant JH1 catalytic domain, JAK3-974 peptide, 15 μM ATP). Particulars: JH1 kinase domain, ADP-Glo. An outline of the steps: as §1

Experiment [4] has as its target JAK1 kinase activity on STAT3 in TF1 cells (Homo sapiens, UniProt P23458). Kind of experiment: pSTAT3 cell assay (MSD; TF1 cells, 30 ng/mL IL-6 stimulation). To be noted: 30 ng/mL IL-6, 15 minutes. The class given is cell-based. The procedure, abridged:
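Serum-starved TF1 cells were pretreated with compound for 1 hour (10-point, four-fold dilutions from 10 μM), then stimulated with IL-6 for 15 minutes. Lysates were assayed for pSTAT3 by MSD with anti-STAT3 antibodies; IC50 came from a 4-parameter logistic fit of normalized percent activity.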

Experiment [5] deals with T3, human TYK2 kinase domain (JH1) (Homo sapiens, UniProt P29597).
T3 construct: recombinantly generated catalytic kinase (also known as JH1) domain of human JAK1, JAK2, JAK3 and TYK2
T3 sequence (P29597 897-1176 limits assumed): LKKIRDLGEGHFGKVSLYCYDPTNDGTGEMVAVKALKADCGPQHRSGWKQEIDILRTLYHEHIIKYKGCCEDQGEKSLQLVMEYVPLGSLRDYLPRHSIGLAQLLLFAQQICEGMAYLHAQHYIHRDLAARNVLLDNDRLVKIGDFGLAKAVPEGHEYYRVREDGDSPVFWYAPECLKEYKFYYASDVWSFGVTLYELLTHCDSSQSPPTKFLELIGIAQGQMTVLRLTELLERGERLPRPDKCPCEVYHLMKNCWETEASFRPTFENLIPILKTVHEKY
Description: JH1 biochemical assay for TYK2 (ADP-Glo kinase assay, recombinant JH1 catalytic domain, JAK3-974 peptide, 10 μM ATP). Particulars: JH1 kinase domain, ADP-Glo. The procedure, abridged:
as §1

Experiment [6] deals with T4, human JAK1 kinase domain (JH1) (Homo sapiens, UniProt P23458).
T4 construct: recombinantly generated catalytic kinase (also known as JH1) domain of human JAK1, JAK2, JAK3 and TYK2
Kind of experiment: JH1 biochemical assay for JAK1 (ADP-Glo kinase assay, recombinant JH1 catalytic domain, JAK3-342 peptide, 35 μM ATP). To be noted: JH1 kinase domain, ADP-Glo. The procedure, abridged: as §1

For experiment [7], the target named is JAK2 kinase activity on STAT5 in TF1 cells (Homo sapiens, UniProt O60674). Kind of experiment: pSTAT5 cell assay (MSD; TF1 cells, 30 ng/mL IL-3 stimulation). The class given is cell-based. Particulars: 30 ng/mL IL-3, 15 minutes. The procedure, abridged:
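Serum-starved TF1 cells with native JAK2/STAT5 were pretreated 1 h with compound (10-point four-fold dilutions from 10 μM), then stimulated 15 min with 30 ng/mL IL-3. pSTAT5 in lysates quantified by MSD immunoassay; normalized percent activity fitted to a 4-parameter logistic curve for IC50.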

JAK1 kinase activity on STAT3 in TF1 cells, sequence (P23458 whole entry): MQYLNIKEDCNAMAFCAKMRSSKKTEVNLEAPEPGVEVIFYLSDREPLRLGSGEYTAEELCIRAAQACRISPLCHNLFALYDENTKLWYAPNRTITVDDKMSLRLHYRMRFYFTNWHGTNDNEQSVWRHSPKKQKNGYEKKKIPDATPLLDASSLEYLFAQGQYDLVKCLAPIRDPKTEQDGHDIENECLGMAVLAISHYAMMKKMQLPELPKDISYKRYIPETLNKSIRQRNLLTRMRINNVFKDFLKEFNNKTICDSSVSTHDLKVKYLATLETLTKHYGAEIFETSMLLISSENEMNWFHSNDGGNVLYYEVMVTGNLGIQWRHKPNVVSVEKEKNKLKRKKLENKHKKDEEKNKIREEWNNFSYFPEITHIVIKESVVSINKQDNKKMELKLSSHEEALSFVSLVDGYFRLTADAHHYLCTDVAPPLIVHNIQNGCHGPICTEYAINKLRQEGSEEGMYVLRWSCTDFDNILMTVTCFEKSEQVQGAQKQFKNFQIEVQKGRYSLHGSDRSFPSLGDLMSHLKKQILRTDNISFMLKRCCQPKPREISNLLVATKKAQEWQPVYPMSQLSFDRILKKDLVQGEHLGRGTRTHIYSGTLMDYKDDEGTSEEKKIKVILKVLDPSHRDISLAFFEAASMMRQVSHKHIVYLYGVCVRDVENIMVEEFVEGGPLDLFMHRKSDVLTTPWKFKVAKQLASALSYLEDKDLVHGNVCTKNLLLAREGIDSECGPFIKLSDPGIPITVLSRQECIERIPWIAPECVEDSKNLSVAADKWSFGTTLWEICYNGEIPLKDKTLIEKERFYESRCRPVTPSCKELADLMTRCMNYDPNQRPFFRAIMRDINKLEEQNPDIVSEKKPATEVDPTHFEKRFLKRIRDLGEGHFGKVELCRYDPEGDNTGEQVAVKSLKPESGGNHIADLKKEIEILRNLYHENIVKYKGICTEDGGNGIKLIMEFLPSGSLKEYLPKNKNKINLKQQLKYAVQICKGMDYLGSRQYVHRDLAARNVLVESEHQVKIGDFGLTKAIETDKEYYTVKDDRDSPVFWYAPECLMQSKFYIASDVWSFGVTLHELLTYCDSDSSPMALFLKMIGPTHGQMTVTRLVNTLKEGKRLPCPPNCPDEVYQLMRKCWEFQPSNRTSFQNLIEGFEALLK
JAK2 kinase activity on STAT5 in TF1 cells, sequence (O60674 whole entry): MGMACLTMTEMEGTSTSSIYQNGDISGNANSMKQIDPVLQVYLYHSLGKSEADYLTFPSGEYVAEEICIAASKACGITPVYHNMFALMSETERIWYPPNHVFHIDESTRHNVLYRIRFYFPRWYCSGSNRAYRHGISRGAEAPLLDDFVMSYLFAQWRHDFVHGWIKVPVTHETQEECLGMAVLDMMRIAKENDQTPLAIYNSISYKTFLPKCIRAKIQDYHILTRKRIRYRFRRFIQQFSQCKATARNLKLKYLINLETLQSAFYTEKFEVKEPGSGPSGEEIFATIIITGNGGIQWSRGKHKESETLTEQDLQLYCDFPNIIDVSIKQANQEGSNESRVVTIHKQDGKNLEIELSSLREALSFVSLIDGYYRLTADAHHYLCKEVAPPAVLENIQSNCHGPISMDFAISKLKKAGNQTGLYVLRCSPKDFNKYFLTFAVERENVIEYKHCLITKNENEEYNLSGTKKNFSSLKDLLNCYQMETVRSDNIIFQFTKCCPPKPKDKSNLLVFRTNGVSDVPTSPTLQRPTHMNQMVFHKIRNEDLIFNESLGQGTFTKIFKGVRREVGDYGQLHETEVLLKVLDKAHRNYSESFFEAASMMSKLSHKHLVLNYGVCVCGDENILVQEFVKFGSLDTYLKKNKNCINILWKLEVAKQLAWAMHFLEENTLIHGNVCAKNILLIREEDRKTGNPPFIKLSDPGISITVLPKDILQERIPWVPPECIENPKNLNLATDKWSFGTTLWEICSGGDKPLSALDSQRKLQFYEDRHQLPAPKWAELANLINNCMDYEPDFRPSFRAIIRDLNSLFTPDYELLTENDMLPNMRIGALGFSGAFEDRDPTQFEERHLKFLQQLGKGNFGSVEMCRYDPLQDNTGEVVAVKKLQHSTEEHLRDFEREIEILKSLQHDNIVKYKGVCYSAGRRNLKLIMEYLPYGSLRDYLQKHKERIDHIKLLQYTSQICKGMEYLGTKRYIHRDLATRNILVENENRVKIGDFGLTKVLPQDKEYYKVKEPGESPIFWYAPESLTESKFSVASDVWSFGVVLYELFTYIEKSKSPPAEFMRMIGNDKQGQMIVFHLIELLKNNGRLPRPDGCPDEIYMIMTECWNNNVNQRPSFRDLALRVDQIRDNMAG
T4 sequence (P23458 875-1153 limits assumed): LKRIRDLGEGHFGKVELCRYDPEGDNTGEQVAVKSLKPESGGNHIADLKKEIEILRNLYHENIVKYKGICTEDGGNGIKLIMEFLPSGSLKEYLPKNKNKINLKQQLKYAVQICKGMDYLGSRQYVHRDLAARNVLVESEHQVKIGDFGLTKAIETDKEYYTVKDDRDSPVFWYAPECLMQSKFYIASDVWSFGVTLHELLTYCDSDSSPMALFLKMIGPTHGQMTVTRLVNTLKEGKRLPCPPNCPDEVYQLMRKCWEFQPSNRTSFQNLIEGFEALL
Tyk2 kinase activity on STAT4 in NK92 cells, sequence (P29597 whole entry): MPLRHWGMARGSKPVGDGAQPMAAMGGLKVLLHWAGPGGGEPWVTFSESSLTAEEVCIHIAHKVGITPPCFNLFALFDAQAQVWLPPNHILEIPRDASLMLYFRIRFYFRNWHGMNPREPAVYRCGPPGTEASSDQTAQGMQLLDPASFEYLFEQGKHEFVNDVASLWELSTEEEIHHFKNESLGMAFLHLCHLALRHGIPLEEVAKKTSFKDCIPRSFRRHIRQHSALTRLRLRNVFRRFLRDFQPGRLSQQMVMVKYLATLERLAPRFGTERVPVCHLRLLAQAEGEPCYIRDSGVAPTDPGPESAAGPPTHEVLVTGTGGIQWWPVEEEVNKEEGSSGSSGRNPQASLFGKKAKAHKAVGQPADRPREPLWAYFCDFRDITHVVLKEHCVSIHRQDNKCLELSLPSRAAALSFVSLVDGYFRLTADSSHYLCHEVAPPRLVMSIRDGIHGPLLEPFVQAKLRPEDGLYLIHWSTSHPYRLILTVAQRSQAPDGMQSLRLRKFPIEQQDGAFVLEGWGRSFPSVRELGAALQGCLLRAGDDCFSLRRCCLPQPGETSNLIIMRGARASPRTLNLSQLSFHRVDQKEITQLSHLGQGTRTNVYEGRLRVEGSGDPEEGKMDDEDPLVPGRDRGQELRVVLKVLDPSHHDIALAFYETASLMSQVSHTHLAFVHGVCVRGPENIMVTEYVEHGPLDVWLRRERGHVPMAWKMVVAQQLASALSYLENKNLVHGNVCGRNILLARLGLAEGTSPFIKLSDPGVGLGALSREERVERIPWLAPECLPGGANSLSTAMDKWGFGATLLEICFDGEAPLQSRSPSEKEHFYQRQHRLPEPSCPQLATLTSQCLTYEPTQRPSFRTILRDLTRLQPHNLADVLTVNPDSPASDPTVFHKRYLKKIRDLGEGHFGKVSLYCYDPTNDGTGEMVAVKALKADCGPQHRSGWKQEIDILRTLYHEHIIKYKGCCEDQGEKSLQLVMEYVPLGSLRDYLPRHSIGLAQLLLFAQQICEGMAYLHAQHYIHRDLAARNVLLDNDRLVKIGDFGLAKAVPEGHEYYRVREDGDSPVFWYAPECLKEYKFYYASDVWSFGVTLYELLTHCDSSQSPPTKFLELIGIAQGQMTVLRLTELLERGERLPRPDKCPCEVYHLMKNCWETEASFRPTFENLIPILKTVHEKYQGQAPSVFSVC
T2 sequence (O60674 849-1124 limits assumed): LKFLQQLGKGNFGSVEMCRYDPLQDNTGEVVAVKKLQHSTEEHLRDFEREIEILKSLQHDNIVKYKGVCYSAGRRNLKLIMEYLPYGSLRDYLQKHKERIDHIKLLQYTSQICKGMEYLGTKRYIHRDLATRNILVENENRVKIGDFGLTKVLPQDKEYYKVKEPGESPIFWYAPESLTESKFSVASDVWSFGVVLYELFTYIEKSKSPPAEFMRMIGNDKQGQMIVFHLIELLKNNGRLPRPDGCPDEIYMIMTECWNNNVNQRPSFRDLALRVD
T1 sequence (P52333 822-1111 limits assumed): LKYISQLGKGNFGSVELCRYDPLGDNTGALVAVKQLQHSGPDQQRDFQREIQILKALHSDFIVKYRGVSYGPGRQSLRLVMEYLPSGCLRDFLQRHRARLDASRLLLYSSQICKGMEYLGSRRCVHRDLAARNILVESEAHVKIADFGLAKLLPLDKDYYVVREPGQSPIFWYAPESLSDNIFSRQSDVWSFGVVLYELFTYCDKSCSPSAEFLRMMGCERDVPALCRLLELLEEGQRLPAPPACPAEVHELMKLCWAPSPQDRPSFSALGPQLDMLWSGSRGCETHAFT

One may read the IC50 as the concentration that gives 50% inhibition. Regarding `C[C@@H]1CN(c2nc(-c3ccnc(C#N)c3)cn3nccc23)C(=O)[C@]1(C#N)C1CC1` [Example 197, 4-(4-((3R,4S)-3-cyano-3-cyclopropyl-4-methyl-2-oxopyrrolidin-1-yl)pyrazolo[1,5-a]pyrazin-6-yl)picolinonitrile], the IC50 was above 100 nM in experiment [1]; below 100 nM in experiment [2]; 100 to 1000 nM in experiment [3]; 1000 to 5000 nM in experiment [4]; 5 to 20 nM in experiment [5]; below 100 nM in experiment [6]. Also, the IC50 in experiment [7] is above 10 µM.
Turning to `C[C@@H]1CN(c2nc(-c3cnn(C4CC4(F)F)c3)cn3nccc23)C(=O)[C@]1(C#N)C1CC1` (stereo partly drawn) [Example 198, (3R,4S)-3-cyclopropyl-1-(6-(1-(2,2-difluorocyclopropyl)-1H-pyrazol-4-yl)pyrazolo[1,5-a]pyrazin-4-yl)-4-methyl-2-oxopyrrolidine-3-carbonitrile], the IC50 in experiment [1] is 50 to 100 nM; in experiment [2], below 100 nM; in experiment [3] it was below 100 nM; in experiment [4] it was 100 to 1000 nM; in experiment [5], below 5 nM; in experiment [6], below 100 nM. This molecule also came in with an IC50 in experiment [7] of 0.1 to 1 µM.
In the case of `Cc1c(-c2cn3nccc3c(N3C[C@@H](C)[C@@](C#N)(C4CC4)C3=O)n2)cnn1C` [Example 199, (3R,4S)-3-cyclopropyl-1-(6-(1,5-dimethyl-1H-pyrazol-4-yl)pyrazolo[1,5-a]pyrazin-4-yl)-4-methyl-2-oxopyrrolidine-3-carbonitrile], the IC50 in experiment [1] was above 100 nM; in experiment [2], 100 to 1000 nM; in experiment [3], 100 to 1000 nM; in experiment [4] it was 1000 to 5000 nM; in experiment [5] it was 5 to 20 nM; in experiment [6], below 100 nM. This molecule also returned an IC50 in experiment [7] of 5 to 10 µM.
In the case of `[2H]C([2H])([2H])n1cc(-c2cn3nccc3c(N3C[C@@H](C)[C@@](C#N)(C4CC4)C3=O)n2)cn1` [Example 201, (3R,4S)-3-cyclopropyl-4-methyl-1-(6-(1-(methyl-d3)-1H-pyrazol-4-yl)pyrazolo[1,5-a]pyrazin-4-yl)-2-oxopyrrolidine-3-carbonitrile], the IC50 in experiment [1] is 20 to 50 nM; in experiment [2] it was below 100 nM; in experiment [3] it was below 100 nM; in experiment [4] it was 100 to 1000 nM; in experiment [5], below 5 nM; in experiment [6], below 100 nM. In addition, the IC50 in experiment [7] is 0.1 to 1 µM.
`CCn1cc(-c2cn3nccc3c(N3C[C@@H](C)[C@@](C#N)(C4CC4)C3=O)n2)cn1` [Example 202, (3R,4S)-3-cyclopropyl-1-(6-(1-ethyl-1H-pyrazol-4-yl)pyrazolo[1,5-a]pyrazin-4-yl)-4-methyl-2-oxopyrrolidine-3-carbonitrile]: the IC50 was 50 to 100 nM in experiment [1]; below 100 nM in experiment [2]; below 100 nM in experiment [3]; 100 to 1000 nM in experiment [4]; below 5 nM in experiment [5]; below 100 nM in experiment [6]. Also, in experiment [7], the IC50 was in the range of 0.1 to 1 µM.
Take `C[C@@H]1CN(c2nc(-c3cnn(C4CCOCC4)c3)cn3nccc23)C(=O)[C@]1(C#N)C1CC1` [Example 203, (3R,4S)-3-cyclopropyl-4-methyl-2-oxo-1-(6-(1-(tetrahydro-2H-pyran-4-yl)-1H-pyrazol-4-yl)pyrazolo[1,5-a]pyrazin-4-yl)pyrrolidine-3-carbonitrile]: the IC50 in experiment [1] is 20 to 50 nM; in experiment [2], below 100 nM; in experiment [3], below 100 nM; in experiment [4], 100 to 1000 nM; in experiment [5], below 5 nM; in experiment [6], below 100 nM. The molecule also had an IC50 in experiment [7] below 0.1 µM.
As to `C[C@@H]1CN(c2nc(-c3cnc4c(c3)CCC(=O)N4)cn3nccc23)C(=O)[C@]1(C#N)C1CC1` [Example 204, (3R,4S)-3-cyclopropyl-4-methyl-2-oxo-1-(6-(7-oxo-5,6,7,8-tetrahydro-1,8-naphthyridin-3-yl)pyrazolo[1,5-a]pyrazin-4-yl)pyrrolidine-3-carbonitrile], the IC50 in experiment [1] is 50 to 100 nM; in experiment [2] it was below 100 nM; in experiment [3] it was below 100 nM; in experiment [4], 1000 to 5000 nM; in experiment [5] it was below 5 nM; in experiment [6], below 100 nM. The IC50 in experiment [7] was in the range of 1 to 5 µM.
For the molecule `C[C@@H]1CN(c2nc(-c3cnc4c(c3)CC(=O)N4)cn3nccc23)C(=O)[C@]1(C#N)C1CC1` [Example 205, (3R,4S)-3-cyclopropyl-4-methyl-2-oxo-1-(6-(2-oxo-2,3-dihydro-1H-pyrrolo[2,3-b]pyridin-5-yl)pyrazolo[1,5-a]pyrazin-4-yl)pyrrolidine-3-carbonitrile], the 50% inhibitory concentration (IC50) in experiment [1] is above 100 nM; in experiment [2], below 100 nM; in experiment [3] it was below 100 nM; in experiment [4] it was 1000 to 5000 nM; in experiment [5], below 5 nM; in experiment [6], below 100 nM. The molecule also gave an IC50 in experiment [7] of 5 to 10 µM.
With `C[C@@H]1CN(c2nc(-c3cnn(C)c3)cn3ncc(Cl)c23)C(=O)[C@]1(C#N)C1CC1` [Example 206, (3R,4S)-1-(3-chloro-6-(1-methyl-1H-pyrazol-4-yl)pyrazolo[1,5-a]pyrazin-4-yl)-3-cyclopropyl-4-methyl-2-oxopyrrolidine-3-carbonitrile], the IC50 was above 100 nM in experiment [1]; 100 to 1000 nM in experiment [2]; 100 to 1000 nM in experiment [3]; above 10000 nM in experiment [4]; 5 to 20 nM in experiment [5]; 100 to 1000 nM in experiment [6]. Besides, in experiment [7], the IC50 is above 10 µM.
For `C[C@@H]1CN(c2nc(-c3cnn(C45CC(C4)C5)c3)cn3ncc(F)c23)C(=O)[C@]1(C#N)C1CC1` [Example 207, (3R,4S)-1-(6-(1-(bicyclo[1.1.1]pentan-1-yl)-1H-pyrazol-4-yl)-3-fluoropyrazolo[1,5-a]pyrazin-4-yl)-3-cyclopropyl-4-methyl-2-oxopyrrolidine-3-carbonitrile], the IC50 in experiment [1] was 50 to 100 nM; in experiment [2], below 100 nM; in experiment [3] it was 100 to 1000 nM; in experiment [4], 100 to 1000 nM; in experiment [5], below 5 nM; in experiment [6] it was below 100 nM. The IC50 in experiment [7] lay in the range of 1 to 5 µM.
In the case of `Cc1nn(C)cc1-c1cn2nccc2c(N2C[C@@H](C)[C@@](C#N)(C3CC3)C2=O)n1` [Example 208, (3R,4S)-3-cyclopropyl-1-(6-(1,3-dimethyl-1H-pyrazol-4-yl)pyrazolo[1,5-a]pyrazin-4-yl)-4-methyl-2-oxopyrrolidine-3-carbonitrile], the IC50 was 50 to 100 nM in experiment [1]; below 100 nM in experiment [2]; below 100 nM in experiment [3]; 1000 to 5000 nM in experiment [4]; below 5 nM in experiment [5]; below 100 nM in experiment [6]. This molecule also displayed an IC50 in experiment [7] of 1 to 5 µM.
`Cc1nc(C)c(-c2cn3nccc3c(N3C[C@@H](C)[C@@](C#N)(C4CC4)C3=O)n2)s1` [Example 209, (3R,4S)-3-cyclopropyl-1-(6-(2,4-dimethylthiazol-5-yl)pyrazolo[1,5-a]pyrazin-4-yl)-4-methyl-2-oxopyrrolidine-3-carbonitrile]: the IC50 in experiment [1] was above 100 nM; in experiment [2], below 100 nM; in experiment [3], 100 to 1000 nM; in experiment [4], 1000 to 5000 nM; in experiment [5] it was 5 to 20 nM; in experiment [6], below 100 nM. The IC50 in experiment [7] lay within 5 to 10 µM.
With `C[C@@H]1CN(c2nc(-c3ccc(=O)n(C(F)F)c3)cn3nccc23)C(=O)[C@]1(C#N)C1CC1` [Example 210, (3R,4S)-3-cyclopropyl-1-(6-(1-(difluoromethyl)-6-oxo-1,6-dihydropyridin-3-yl)pyrazolo[1,5-a]pyrazin-4-yl)-4-methyl-2-oxopyrrolidine-3-carbonitrile], the IC50 in experiment [1] was above 100 nM; in experiment [2], below 100 nM; in experiment [3], 100 to 1000 nM; in experiment [4], 1000 to 5000 nM; in experiment [5] it was below 5 nM; in experiment [6], below 100 nM. For the same molecule, the IC50 in experiment [7] was 5 to 10 µM.
